Assay results taken from patent publication US11040028B2, “Penicinotam derivative, preparation method and use thereof” (OCEAN UNIVERSITY OF CHINA, priority 2017, dated 2021).

Columns and labels:
Format in all cases: cell-based
NF-κB = test: Immunological activity test: inhibition of NF-κB activity; settings: initial concentration of 30 μM; a/b isomers given as first/second symbol; read-out: IC50 (μM), inhibitory activity against NF-κB
Method in brief: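 Parthenolide as positive control; starting test concentration 30 μM; inhibition of NF-κB activity analysed further to yield IC50.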

[1] = tested on: human fibrosarcoma cells HT-1080; test: Anti-fibrosis activity test: inhibition of proliferation of human fibrosarcoma cells HT-1080 (CCK-8); settings: Homo sapiens, HT-1080, 48 h, HT-1080 cells, 48 h, CCK-8
Method in brief: (§1)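 IC50 values derive from CCK-8 absorbance (450 nm, 2 h reagent incubation) measured after a 48 h exposure to test compounds. Before dosing, cells plated at 2×10^4 cells/mL had attached for 24 h under 5% CO2 at 37° C; triplicate wells per concentration.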

BHK-21 cells = test: Anti-fibrosis activity test: inhibition of BHK-21 cell proliferation (CCK-8); settings: Mesocricetus auratus, BHK-21, 48 h, 48 h, CCK-8
Method in brief: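 Each concentration was tested in triplicate on adhered BHK-21 cells for 48 h, with pirfenidone as reference. A 2 h CCK-8 incubation preceded absorbance reading at 450 nm, and IC50 was obtained from percent inhibition versus blank.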

[2] = tested on: human embryonic lung fibroblast IMR-90; test: Anti-fibrosis activity test: inhibition of proliferation of human embryonic lung fibroblast IMR-90 (CCK-8); settings: Homo sapiens; IMR-90 cells, 48 h, CCK-8
Method in brief: as §1

[3] = tested on: human lung fibroblasts HFL1; test: Anti-fibrosis activity test: inhibition of proliferation of human lung fibroblasts HFL1 (CCK-8); settings: Homo sapiens, HFL1, 48 h, HFL1 cells, 48 h, CCK-8
Method in brief: as §1

[4] = tested on: human dermal fibroblasts CCC-ESF-1; test: Anti-fibrosis activity test: inhibition of proliferation of human dermal fibroblasts CCC-ESF-1 (CCK-8); settings: Homo sapiens, Fibroblast; CCC-ESF-1 cells, 48 h, CCK-8
Method in brief: as §1

[5] = tested on: mouse macrophages (RAW264.7); test: Lipopolysaccharide-induced NO secretion in macrophages (Griess); settings: Mus musculus, RAW264.7, 24 h, RAW264.7, LPS 1 μg/ml, a/b isomers given as first/second symbol, read-out: IC50 (μM), inhibition of lipopolysaccharide-induced NO secretion in macrophages
Method in brief: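 Percent inhibition of NO release was measured by Griess absorbance at 548 nm in supernatants. Cells were mouse RAW264.7 macrophages in 10% FBS DMEM, treated with graded compound concentrations and activated by LPS (1 μg/ml) for 24 h.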

[6] = tested on: cardiac fibroblast RAT-iCell-C002; test: Anti-fibrosis activity test: inhibition of proliferation of cardiac fibroblast RAT-iCell-C002 (CCK-8); settings: Cardiac fibroblast, 48 h, RAT-iCell-C002 cells, CCK-8
Method in brief: as §1

[7] = tested on: human hepatic stellate cells LX-2; test: Anti-fibrosis activity test: inhibition of proliferation of human hepatic stellate cells LX-2 (CCK-8); settings: Homo sapiens, LX-2, 48 h, LX-2 cells, 48 h, CCK-8
Method in brief: as §1

Row | SMILES | IC50 (NF-κB) | IC50 [1] | IC50 (BHK-21 cells) | IC50 [2] | IC50 [3] | IC50 [4] | IC50 [5] | IC50 [6] | IC50 [7]
1 | O=C1c2c(nc3ccccc3c2OCc2ccccc2[N+](=O)[O-])-c2cccn21 [Compound 668b, 9-((2-nitrobenzyl)oxy)-10H-pyrrolizino[1,2-b]quinolin-10-one] | 1 to 10 µM | 0.05 to 5 mM | 0.05 to 5 mM | 0.05 to 5 mM | 0.05 to 5 mM | 0.05 to 5 mM | 1 to 10 µM | 0.05 to 5 mM | 0.05 to 5 mM
2 | O=C1c2c(n(CCCN3CCNCC3)c3ccccc3c2=O)-c2cccn21 [Compound 669a, 4-(3-(Piperazin-1-yl)propyl)-9H-pyrrolizino[1,2-b]quinoline-9,10(4H)-dione] | 0.1 to 1 µM | 0.05 to 5 mM | 0.05 to 5 mM | 0.05 to 5 mM | 0.05 to 5 mM | 0.05 to 5 mM | 1 to 10 µM | 0.05 to 5 mM | 0.05 to 5 mM
3 | O=C1c2c(nc3ccccc3c2OCCCN2CCNCC2)-c2cccn21 [Compound 669b, 9-(3-(piperazin-1-yl)propoxy)-10H-pyrrolizino[1,2-b]quinolin-10-one] | 1 to 10 µM | 0.05 to 5 mM | 0.05 to 5 mM | 0.05 to 5 mM | 0.05 to 5 mM | 0.05 to 5 mM | 1 to 10 µM | 0.05 to 5 mM | 0.05 to 5 mM
4 | O=C1c2c(n(CCCCN3CCNCC3)c3ccccc3c2=O)-c2cccn21 [Compound 670a, 4-(4-(Piperazin-1-yl)butyl)-9H-pyrrolizino[1,2-b]quinoline-9,10(4H)-dione] | 0.1 to 1 µM | 0.05 to 5 mM | < 0.05 mM | < 0.05 mM | 0.05 to 5 mM | 0.05 to 5 mM | 1 to 10 µM | 0.05 to 5 mM | 0.05 to 5 mM
5 | O=C1c2c(nc3ccccc3c2OCCCCN2CCNCC2)-c2cccn21 [Compound 670b, 9-(4-(piperazin-1-yl)butoxy)-10H-pyrrolizino[1,2-b]quinolin-10-one] | 1 to 10 µM | 0.05 to 5 mM | 0.05 to 5 mM | 0.05 to 5 mM | 0.05 to 5 mM | 0.05 to 5 mM | 1 to 10 µM | 0.05 to 5 mM | 0.05 to 5 mM
6 | CCCOCCn1c2c(c(=O)c3ccccc31)C(=O)n1cccc1-2 [Compound 671a, 4-(2-Propoxyethyl)-9H-pyrrolizino[1,2-b]quinoline-9,10(4H)-dione] | 1 to 10 µM | 0.05 to 5 mM | 0.05 to 5 mM | 0.05 to 5 mM | 0.05 to 5 mM | 0.05 to 5 mM | 1 to 10 µM | 0.05 to 5 mM | 0.05 to 5 mM
7 | CCCOCCOc1c2c(nc3ccccc13)-c1cccn1C2=O [Compound 671b, 9-(2-propoxyethoxy)-10H-pyrrolizino[1,2-b]quinolin-10-one] | 0.1 to 1 µM | 0.05 to 5 mM | 0.05 to 5 mM | 0.05 to 5 mM | 0.05 to 5 mM | 0.05 to 5 mM | 1 to 10 µM | 0.05 to 5 mM | 0.05 to 5 mM
8 | CCOCCCn1c2c(c(=O)c3ccccc31)C(=O)n1cccc1-2 [Compound 672a, 4-(3-Ethoxypropyl)-9H-pyrrolizino[1,2-b]quinoline-9,10(4H)-dione] | 1 to 10 µM | 0.05 to 5 mM | 0.05 to 5 mM | 0.05 to 5 mM | 0.05 to 5 mM | 0.05 to 5 mM | 1 to 10 µM | 0.05 to 5 mM | 0.05 to 5 mM
9 | CCOCCCOc1c2c(nc3ccccc13)-c1cccn1C2=O [Compound 672b, 9-(3-ethoxypropoxy)-10H-pyrrolizino[1,2-b]quinolin-10-one] | 1 to 10 µM | 0.05 to 5 mM | 0.05 to 5 mM | 0.05 to 5 mM | 0.05 to 5 mM | 0.05 to 5 mM | 1 to 10 µM | 0.05 to 5 mM | 0.05 to 5 mM
10 | O=C1c2c(n(C3CC3)c3ccccc3c2=O)-c2cccn21 [Compound 673a, 4-Cyclopropyl-9H-pyrrolizino[1,2-b]quinoline-9,10(4H)-dione] | 1 to 10 µM | 0.05 to 5 mM | < 0.05 mM | 0.05 to 5 mM | 0.05 to 5 mM | 0.05 to 5 mM | 1 to 10 µM | 0.05 to 5 mM | 0.05 to 5 mM
11 | O=C1c2c(nc3ccccc3c2OC2CC2)-c2cccn21 [Compound 673b, 9-cyclopropoxy-10H-pyrrolizino[1,2-b]quinolin-10-one] | 1 to 10 µM | 0.05 to 5 mM | 0.05 to 5 mM | 0.05 to 5 mM | 0.05 to 5 mM | 0.05 to 5 mM | 1 to 10 µM | 0.05 to 5 mM | 0.05 to 5 mM
12 | Cc1cccc2[nH]c3c(c(=O)c12)C(=O)n1cccc1-3 [Compound 678a, 8-Methyl-9H-pyrrolizino[1,2-b]quinoline-9,10(4H)-dione] | 1 to 10 µM | 0.05 to 5 mM | 0.05 to 5 mM | 0.05 to 5 mM | 0.05 to 5 mM | 0.05 to 5 mM | 1 to 10 µM | 0.05 to 5 mM | 0.05 to 5 mM
13 | Cc1cccc2nc3c(c(O)c12)C(=O)n1cccc1-3 [Compound 678b, 9-hydroxy-8-methyl-10H-pyrrolizino[1,2-b]quinolin-10-one] | 1 to 10 µM | 0.05 to 5 mM | 0.05 to 5 mM | 0.05 to 5 mM | 0.05 to 5 mM | 0.05 to 5 mM | 1 to 10 µM | 0.05 to 5 mM | 0.05 to 5 mM
14 | Cc1ccc2[nH]c3c(c(=O)c2c1)C(=O)n1cccc1-3 [Compound 696a, 7-Methyl-9H-pyrrolizino[1,2-b]quinoline-9,10(4H)-dione] | 1 to 10 µM | 0.05 to 5 mM | 0.05 to 5 mM | 0.05 to 5 mM | 0.05 to 5 mM | 0.05 to 5 mM | 1 to 10 µM | 0.05 to 5 mM | 0.05 to 5 mM
15 | Cc1ccc2nc3c(c(O)c2c1)C(=O)n1cccc1-3 [Compound 696b, 9-hydroxy-7-methyl-10H-pyrrolizino[1,2-b]quinolin-10-one] | 1 to 10 µM | 0.05 to 5 mM | 0.05 to 5 mM | 0.05 to 5 mM | 0.05 to 5 mM | 0.05 to 5 mM | 1 to 10 µM | 0.05 to 5 mM | 0.05 to 5 mM
16 | Cc1cccc2c(=O)c3c([nH]c12)-c1cccn1C3=O [Compound 732a, 5-Methyl-9H-pyrrolizino[1,2-b]quinoline-9,10(4H)-dione] | 0.1 to 1 µM | 0.05 to 5 mM | < 0.05 mM | 0.05 to 5 mM | 0.05 to 5 mM | < 0.05 mM | 1 to 10 µM | 0.05 to 5 mM | 0.05 to 5 mM
